The record followed here is patent US8362203B2, “Non-natural peptides as models for the development of antibiotics” (priority 2009, dated 2013).

The test system of test [1] is E. coli helix 31 hairpin RNA (ECh31WT). The test is described as follows: Fluorescence titration of 5′-fluorescein-labeled helix 31 RNA with peptide. It is filed as binding. Conditions: 0.5 μM h31, 10 mM HEPES, 50 mM NaCl, 1 mM Na2EDTA, pH 7.5, 25° C.; hyperbolic curve fitting; read-out: apparent KD (fluorescence). As to the method:
Fluorescence methods. Fluorescence measurements were taken on a RF-5301PC spectrofluorometer (Shimadzu) at 25° C. using a 1 cm path-length quartz fluorometer cell. The emission spectra were acquired by scanning between 500 and 600 nm with an excitation wavelength of 494 nm, slit widths of 3 nm for excitation and emission. The fluorescent titrations were performed by adding increasing concentrations of peptide (5-150 μM) to 350 μl of 0.5 μM 5′-fluorescein-labeled helix 31 RNA in HEPES buffer (10 mM HEPES, 50 mM NaCl, 1 mM Na2EDTA at pH 7.5) and incubated for 2 min for each concentration point followed by spectrum scanning. […] RNA-peptide binding was determined by quenching of the fluorescence intensity upon addition of peptide to the sample. The fluorescence intensity at 523 nm was converted to a fraction bound ratio and the dissociation constant (KD) of RNA-peptide binding was determined by curve fitting using the Kaleidagraph™ 3.0 program, as described in Chapter 3, Section 3.5.3
Fluorescence titration assay. […] In this experiment, the fluorescence intensity decreased upon increases in the peptide concentration (FIG. 54); however, the percent change in the observed fluorescence intensity was fairly small (7%). […]
The relatively poor fits may be a result of the fact that the fluorescence changes are quite small leading to greater error. […]

The test system is the same in test [2]. As to the kind of experiment: Circular dichroism titration of helix 31 RNA with peptide. As to conditions: 0.5 μM h31, 100 mM NaCl, 10 mM sodium phosphate, 0.1 mM Na2EDTA, pH 7; CD at 270 nm; read-out: apparent KD (circular dichroism). It counts as binding. As to the method: Binding studies with CD. The titration was performed by adding increasing concentrations of peptide (10-80 μM) to 1 mL of 0.5 μM ECh31WT RNA in 10 mM sodium phoshate, 100 mM NaCl, 0.1 mM Na2EDTA at pH 7, and incubated for 2 min for each concentration point followed by spectrum scanning. Prior to titration, the RNA was renatured as described in Chapter 3, Section 3.2.2. RNA-peptide binding was determined by observing CD changes at 270 nm upon addition of peptide to the sample. The CD at 270 nm was converted to a fraction bound ratio and the dissociation constant (KD) of RNA-peptide binding was determined by curve fitting using the Kaleidagraph™ 3.0 program, as described in Chapter 3, Section 3.2.4.
Circular dichroism studies. CD was employed to assess the conformational changes in helix 31 upon binding of the peptide. […] Conformational changes in helix 31 measured by circular dichroism spectroscopy was performed in 100 mM NaCl, 10 mM sodium phosphate, and 0.1 mM Na2EDTA at pH 7. […] The dissociation constant (KD) of RNA-peptide binding was determined by plotting Fr versus peptide concentration, and by curve fitting to Equation, Fr=[P]^n/([P]^n+KD^n) where [P] is the peptide concentration, n is the Hill coefficient, and KD is the apparent dissociation constant (FIG. 56B). […]
On the technique in general: CD spectra are sensitive to the conformation of chiral molecules.

Test [3] deals with E. coli h31 RNA (ECh31WT). As to the kind of experiment: SPR kinetic analysis of binding to immobilized biotinylated helix 31 RNA. As to the method: SPR methods. All immobilization and subsequent binding studies were performed using a BIAcore 2000 instrument set at a temperature of 25° C. Standard dextran surface BIAcore sensorchips (Sensor chip CM5) were purchased from BIAcore. Standard desorb and sanitize routines were performed according to the BIAcore guidelines before docking a new CM5 sensor chip. All buffers were filtered through sterile 0.2 μm nylon membranes (Millipore™) under vacuum. Before derivatizing the flow cells with streptavidin, the CM5 sensor chip was pre-conditioned using three successive 10 μl injections of chip-preparation solution (10 mM NaOH, 500 mM NaCl) at 100 μl/min, followed by a normalization routine using BIAnormalizing solution (40% glycerol). Streptavidin derivatization was performed as described in Chapter 3. Prior to immobilization, the solution of biotinylated RNA in HBS-EP buffer (10 mM HEPES, 3 mM EDTA, 150 mM NaCl, 0.005% P20 at pH 7.4) was renatured by heating to 90° C. for 2 min followed by placing on ice. Flow cells were functionalized by injecting 30 μl of RNA at a time using the MANUAL INJECT command at a flow rate of 10 μl/min, until the desired immobilization level is reached. One of the flow cells was used to immobilize RNA (typically FC4), while another one adjacent to it (FC3) remained unmodified to serve as a blank-control for matrix effects. Levels of RNA captured were calculated by subtracting […] for each flow cell. After RNA immobilization, FC3 and FC4 were blocked with 100 μL of 1 mg/mL biotin at 5 μL/min.
Peptide samples were prepared by serial dilutions from stock solutions into micro-centrifuge tubes. Dilutions are made by the same running buffer to avoid buffer mismatches. […]
Biotinylated helix 31 RNA was immobilized onto a streptavidin-coated CM5 chip and differing concentrations of 17 (TYLPWPA)-GFP (“TYLPWPA” disclosed as SEQ ID NO: 2) were injected as the analyte. […] Finally, the apparent dissociation constants were determined under optimized conditions. […]
In general terms: Surface plasmon resonance follows binding to a sensor surface in real time, without labels.

Take “TYLPWPA [peptide 17, 7-mer peptide selected by phage display against helix 31 RNA]”: the Kd in test [1] was 27 ± 4 µM; in test [2] it was 28 ± 10 µM. For the same substance, the “affinity for helix 31 RNA (in words)” value in test [3] is “moderate affinity”. The “KD (SPR, kd/ka)” value in test [3] (Langmuir 1:1 model, same running buffer, pH 7.5, 50 μL/min) turned out to be 28 ± 1 µM. Besides, the “SPR response due to binding, free peptide as analyte” value in test [3] (peptide without GFP) is “negligible responses”.
